# From patent US20100130457A1, “Phenothiazine Derivatives for Treatment of Asthma” (Immune Control, Inc., priority 2008, published 2010)
# Entries after “also recorded” stand apart in the source; their conditions may differ. Where two headings read alike, the source gives them in different places.
# What was measured:
# human small airway = experiment: Human precision-cut lung slices (PCLS), small airway contraction
# Experimental: Human precision-cut lung slices (PCLS) permit evaluation of pharmacological responses of novel drug candidates applied directly to their target tissue.
# Human precision-cut lung slices (PCLS, 250 μm thick) containing a small airway were contracted to carbachol, histamine and passively sensitization to induce airway closure±pre-incubation with ICI-735 (10 μM; 2 hours); FIG. 13. For example, human lung slices containing a small airway were incubated overnight with either negative control IgG (4 μg/mL) or positive control IgE (4 μg/mL). The slices were tested as follows: 1) IgG+anti-IgE; 2) IgE+anti-IgE; 3) IgE+Dexamethasone (1 μM)+anti-IgE; and 4) IgE+ICI-735 (10 μM) +anti-IgE. Dexamethasone and ICI-735 were pre-incubated 2 hours prior to anti-IgE; anti-IgE is used to crosslink antibodies and induce mast cell degranulation, which is believed to release histamine and cause airway contract. […]
# Human lung tissue contains multiple cell types, including mast cells, that localize in the region of airway smooth muscle, and that increase in number in individuals with asthma. Cross-linking of Fcε;R1 receptors on surfaces of mast cells leads to release of granules that contain smooth muscle contractile agonists, including histamine and leukotrienes.
# To test C-027 as a blocker of histamine-induced bronchoconstriction, lung slices were incubated for 2 hours with C-027, and small airway contraction was evaluated after addition of increasing concentrations of histamine.
# MPR1-MDCK = MPR1-MDCK permeability, potential to cross the blood-brain barrier; format: in vitro ADME; details: for % Recovery A-B / Papp A-B: A-B direction; for % Recovery B-A / Papp B-A: B-A direction; for Efflux: efflux ratio; for Brain Penetration Classification: from A-B Papp and efflux ratio
# Text: (§1) A criterion for selecting an agent for proceeding to clinical trials is whether the compound crosses the blood-brain barrier. […] Fluphenazine (ICI-01175) is used as a control compound that has the potential to cross the blood-brain barrier. Table 1 summarizes the results of the test compounds for their potential to cross the blood-brain barrier.
# RPMI 8226 = experiment: Inhibition of proliferation of RPMI 8226 cells; format: cell-based, human; details: RPMI cells in vitro
# Text: The next set of experiments was designed to assess compounds that have low levels of brain penetration for the ability of the test compounds to inhibit cellular proliferation. An exemplary in vitro assay is to screen for the ability of the test compounds to inhibit proliferation of the B-cell neoplastic cell line RPMI 8226 (a plasmacytoma derived from a multiple myeloma patient (Matsuoka, et al., 1967, Proc. Soc. Exp. Biol. Med. 125: 1246-1250). However other cell line can be used such as, U266 (established from an IgE-secreting myeloma patient (Nilsson, et al., 1970, Clin. Exp. Immunol., 7: 477-489) and ARH77 (an EBV transformed plasma cell leukemia (Burk, et al., 1978, Cancer Res. 38: 2508-2513).
# FIG. 1 is a graph depicting the effects on the test compounds on RPMI cell viability.
# [1] = MPR1-MDCK permeability, potential to cross the blood-brain barrier; format: in vitro ADME; details: dog, MDCK
# Text: as §1
% Recovery A-B (MPR1-MDCK) [%],Papp A-B (MPR1-MDCK) [×10⁻⁶ cm/s],% Recovery B-A (MPR1-MDCK) [%],Papp B-A (MPR1-MDCK) [×10⁻⁶ cm/s],Efflux (MPR1-MDCK),Structure (SMILES),Brain Penetration Classification (MPR1-MDCK),further results
57,<0.24,46,19.4,>80,CNCC(=O)NCCCN1CCN(CCCN2c3ccccc3Sc3ccc(C(F)(F)F)cc32)CC1 [ICI-00823],Low (A-B Papp > 3.0 and Efflux Ratio > 10: Low),–
59,0.21,41,24.9,116,CNCC(=O)NCCN1CCN(CCCN2c3ccccc3Sc3ccc(C(F)(F)F)cc32)CC1 [ICI-00758],Low (A-B Papp > 3.0 and Efflux Ratio > 10: Low),–
3,<0.36,1,<0.49,–,NCCN1CCC(CCCN2c3ccccc3Sc3ccc(C(F)(F)F)cc32)CC1 [ICI-00846],Low (A-B Papp > 3.0 and Efflux Ratio > 10: Low),–
46,<0.25,40,18.8,>75,NCCCN1CCN(CCCN2c3ccccc3Sc3ccc(C(F)(F)F)cc32)CC1 [ICI-00760],Low (A-B Papp > 3.0 and Efflux Ratio > 10: Low),–
15,0.75,29,8.6,11,FC(F)(F)c1ccc2c(c1)N(CCCCN1CCNCC1)c1ccccc1S2 [ICI-00890],Low (A-B Papp > 3.0 and Efflux Ratio > 10: Low),–
17,0.66,15,4.47,6.8,FC(F)(F)c1ccc2c(c1)N(CCCN1CCNCC1)c1ccccc1S2 [ICI-00685],Low (A-B Papp > 3.0 and Efflux Ratio > 10: Low),–
56,0.22,56,30,136,N#Cc1ccc2c(c1)N(CCCN1CCN(CCN)CC1)c1ccccc1S2 [ICI-00894],Low (A-B Papp > 3.0 and Efflux Ratio > 10: Low),–
15,1.06,40,3.33,3.1,CN(C)CCN1CCN(CCCN2c3ccccc3Sc3ccc(C(F)(F)F)cc32)CC1 [ICI-00738],Low (A-B Papp > 3.0 and Efflux Ratio > 10: Low),–
61,0.13,22,15.7,119,NCC(=O)NCCCN1CCN(CCCN2c3ccccc3Sc3ccc(C(F)(F)F)cc32)CC1 [ICI-00822],Low (A-B Papp > 3.0 and Efflux Ratio > 10: Low),–

# The remaining lines, values behind:
Structure (SMILES),% Recovery A-B (MPR1-MDCK) [%],Papp A-B (MPR1-MDCK) [×10⁻⁶ cm/s],% Recovery B-A (MPR1-MDCK) [%],Papp B-A (MPR1-MDCK) [×10⁻⁶ cm/s],Efflux (MPR1-MDCK),Brain Penetration Classification (MPR1-MDCK),further results
"C[N+](C)(C)CCOC(N)=O [Carbachol, reference compound]",–,–,–,–,–,–,"bronchoconstriction (human small airway; 10^−8 to 10^−5 M, dose-dependent): up to 70%"
NCC(=O)NCCCN1CCC(CCCN2c3ccccc3Sc3ccc(C(F)(F)F)cc32)CC1 [ICI-01260],55,0.32,47,26.4,82,Low (A-B Papp > 3.0 and Efflux Ratio > 10: Low),ability to inhibit proliferation of RPMI cells (RPMI 8226; listed as ICI-1260): able to inhibit; also recorded: active
"OCCN1CCN(CCCN2c3ccccc3Sc3ccc(C(F)(F)F)cc32)CC1 [ICI-01175, Fluphenazine, reference compound]",–,–,–,–,–,High (A-B Papp > 3.0 and Efflux Ratio < 3.0: High),"Papp A→B ([1]; A-B direction): 8.7 ×10⁻⁶ cm/s; recovery ([1]; A-B direction, read-out: % Recovery A-B): 24%; Papp B→A ([1]; B-A direction): 9.63 ×10⁻⁶ cm/s; recovery ([1]; B-A direction, read-out: % Recovery B-A): 43%; efflux ratio ([1]; efflux ratio): 1.1"
CNCC(=O)NCCN1CCC(CCCN2c3ccccc3Sc3ccc(C(F)(F)F)cc32)CC1 [ICI-00849],11,<1,26,5.1,>5.1,Low (A-B Papp > 3.0 and Efflux Ratio > 10: Low),ability to inhibit proliferation of RPMI cells (RPMI 8226): able to inhibit
NCC(=O)NCCN1CCC(CCCN2c3ccccc3Sc3ccc(C(F)(F)F)cc32)CC1 [ICI-00848],22,0.24,21,15.5,64,Low (A-B Papp > 3.0 and Efflux Ratio > 10: Low),ability to inhibit proliferation of RPMI cells (RPMI 8226): able to inhibit
NCC(N)C(=O)NCCN1CCN(CCCN2c3ccccc3Sc3ccc(C(F)(F)F)cc32)CC1 (stereo not shown) [ICI-761],–,–,–,–,–,–,ability to inhibit proliferation of RPMI cells (RPMI 8226): able to inhibit
CC(=O)NCCN1CCC(CCCN2c3ccccc3Sc3ccc(C(F)(F)F)cc32)CC1 [ICI-00850],11,0.94,9,4.94,5.3,Low (A-B Papp > 3.0 and Efflux Ratio > 10: Low),–
CN(C)CCCN1CCC(CCCN2c3ccccc3Sc3ccc(C(F)(F)F)cc32)CC1 [ICI-01505],3,<0.36,26,0.64,>1.8,Low (A-B Papp > 3.0 and Efflux Ratio > 10: Low),–
FC(F)(F)c1ccc2c(c1)N(CCCC1CCNCC1)c1ccccc1S2 [ICI-00824],11,1.77,21,13.8,7.8,Low (A-B Papp > 3.0 and Efflux Ratio > 10: Low),–
CNCC(=O)NCCCN1CCC(CCCN2c3ccccc3Sc3ccc(C(F)(F)F)cc32)CC1 [ICI-01259],29,<0.29,39,12.5,>43,Low (A-B Papp > 3.0 and Efflux Ratio > 10: Low),ability to inhibit proliferation of RPMI cells (RPMI 8226): able to inhibit
"C[C@@H]1C[C@H]2[C@@H]3CCC4=CC(=O)C=C[C@]4(C)[C@@]3(F)[C@@H](O)C[C@]2(C)[C@@]1(O)C(=O)CO [Dexamethasone, reference compound]",–,–,–,–,–,–,"airway contraction to IgE/anti-IgE (passive sensitization, mast cell degranulation) (human small airway; ICI-735 10 μM, dexamethasone 1 μM, pre-incubated 2 hours): no effect"
"CC(C)NCC(O)c1ccc(O)c(O)c1 (stereo not shown) [isoproterenol, reference compound]",–,–,–,–,–,–,"relaxation of maximally contracted airway smooth muscle (human small airway; in the presence of 30 μM CCh, isoproterenol 10 μM): comparable degree of relaxation"
